Source: patent US8022206B2 (OSI Pharmaceuticals, LLC, priority 2008, dated 2011)

Legend:
RON (human) = RON (human) (Homo sapiens, UniProt Q04912); experiment: RON (human) AlphaScreen kinase assay, Km of ATP; assay type: biochemical; conditions: AlphaScreen, Km of ATP; read-out: RON biochemical IC50
Summary of the method: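 Detection used PT66 AlphaScreen beads added in Tris pH 7.5/NaCl/EDTA/BSA buffer, read after 1 h incubation. Vehicle-only DMSO wells served as controls.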

MET (human) = MET (human) (Homo sapiens, UniProt P08581); experiment: MET (human) AlphaScreen kinase assay, Km of ATP; assay type: biochemical; conditions: AlphaScreen, Km of ATP; read-out: Met biochemical IC50
Summary of the method: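 Human MET at lot-optimised concentration in 50 mM Tris pH 7.4 buffer with 1 mM DTT, compound at 1% DMSO final; enzyme starts the reaction, 60 min at RT.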

Chain of MET (human) (P08581 25-1390): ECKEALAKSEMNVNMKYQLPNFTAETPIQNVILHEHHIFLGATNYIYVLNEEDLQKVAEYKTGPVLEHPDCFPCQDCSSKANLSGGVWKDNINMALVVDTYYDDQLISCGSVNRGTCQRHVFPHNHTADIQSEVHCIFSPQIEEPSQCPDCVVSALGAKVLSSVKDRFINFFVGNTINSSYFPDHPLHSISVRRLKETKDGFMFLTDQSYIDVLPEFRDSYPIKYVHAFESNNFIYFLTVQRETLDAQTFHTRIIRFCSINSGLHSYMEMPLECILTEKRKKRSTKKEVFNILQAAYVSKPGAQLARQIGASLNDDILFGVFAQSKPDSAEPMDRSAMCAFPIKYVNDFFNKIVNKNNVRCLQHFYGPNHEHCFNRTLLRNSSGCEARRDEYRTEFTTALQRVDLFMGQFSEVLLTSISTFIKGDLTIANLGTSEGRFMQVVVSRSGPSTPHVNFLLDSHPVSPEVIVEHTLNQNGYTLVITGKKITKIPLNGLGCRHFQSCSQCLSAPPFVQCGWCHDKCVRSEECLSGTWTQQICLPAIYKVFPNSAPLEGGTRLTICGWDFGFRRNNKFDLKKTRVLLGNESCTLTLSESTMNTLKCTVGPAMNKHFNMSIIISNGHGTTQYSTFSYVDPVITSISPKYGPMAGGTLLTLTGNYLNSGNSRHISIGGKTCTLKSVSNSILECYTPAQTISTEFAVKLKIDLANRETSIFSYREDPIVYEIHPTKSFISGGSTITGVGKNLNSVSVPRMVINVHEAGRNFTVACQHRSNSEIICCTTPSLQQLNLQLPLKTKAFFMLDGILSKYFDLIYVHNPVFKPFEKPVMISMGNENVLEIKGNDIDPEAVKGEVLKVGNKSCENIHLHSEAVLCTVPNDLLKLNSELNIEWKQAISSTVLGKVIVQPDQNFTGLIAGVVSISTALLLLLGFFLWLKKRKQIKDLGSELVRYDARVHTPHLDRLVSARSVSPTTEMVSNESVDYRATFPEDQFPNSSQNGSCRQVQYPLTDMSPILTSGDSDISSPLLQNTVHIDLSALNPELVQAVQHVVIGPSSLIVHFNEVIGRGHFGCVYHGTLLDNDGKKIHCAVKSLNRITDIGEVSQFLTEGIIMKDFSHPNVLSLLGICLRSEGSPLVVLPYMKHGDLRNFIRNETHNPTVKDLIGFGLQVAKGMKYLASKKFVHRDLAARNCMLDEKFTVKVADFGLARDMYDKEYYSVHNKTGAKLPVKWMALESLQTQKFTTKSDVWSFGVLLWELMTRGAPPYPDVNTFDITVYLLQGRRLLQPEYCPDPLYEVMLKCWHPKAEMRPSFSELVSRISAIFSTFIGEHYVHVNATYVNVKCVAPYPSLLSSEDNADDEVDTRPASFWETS
Chain of RON (human) (Q04912 25-1400): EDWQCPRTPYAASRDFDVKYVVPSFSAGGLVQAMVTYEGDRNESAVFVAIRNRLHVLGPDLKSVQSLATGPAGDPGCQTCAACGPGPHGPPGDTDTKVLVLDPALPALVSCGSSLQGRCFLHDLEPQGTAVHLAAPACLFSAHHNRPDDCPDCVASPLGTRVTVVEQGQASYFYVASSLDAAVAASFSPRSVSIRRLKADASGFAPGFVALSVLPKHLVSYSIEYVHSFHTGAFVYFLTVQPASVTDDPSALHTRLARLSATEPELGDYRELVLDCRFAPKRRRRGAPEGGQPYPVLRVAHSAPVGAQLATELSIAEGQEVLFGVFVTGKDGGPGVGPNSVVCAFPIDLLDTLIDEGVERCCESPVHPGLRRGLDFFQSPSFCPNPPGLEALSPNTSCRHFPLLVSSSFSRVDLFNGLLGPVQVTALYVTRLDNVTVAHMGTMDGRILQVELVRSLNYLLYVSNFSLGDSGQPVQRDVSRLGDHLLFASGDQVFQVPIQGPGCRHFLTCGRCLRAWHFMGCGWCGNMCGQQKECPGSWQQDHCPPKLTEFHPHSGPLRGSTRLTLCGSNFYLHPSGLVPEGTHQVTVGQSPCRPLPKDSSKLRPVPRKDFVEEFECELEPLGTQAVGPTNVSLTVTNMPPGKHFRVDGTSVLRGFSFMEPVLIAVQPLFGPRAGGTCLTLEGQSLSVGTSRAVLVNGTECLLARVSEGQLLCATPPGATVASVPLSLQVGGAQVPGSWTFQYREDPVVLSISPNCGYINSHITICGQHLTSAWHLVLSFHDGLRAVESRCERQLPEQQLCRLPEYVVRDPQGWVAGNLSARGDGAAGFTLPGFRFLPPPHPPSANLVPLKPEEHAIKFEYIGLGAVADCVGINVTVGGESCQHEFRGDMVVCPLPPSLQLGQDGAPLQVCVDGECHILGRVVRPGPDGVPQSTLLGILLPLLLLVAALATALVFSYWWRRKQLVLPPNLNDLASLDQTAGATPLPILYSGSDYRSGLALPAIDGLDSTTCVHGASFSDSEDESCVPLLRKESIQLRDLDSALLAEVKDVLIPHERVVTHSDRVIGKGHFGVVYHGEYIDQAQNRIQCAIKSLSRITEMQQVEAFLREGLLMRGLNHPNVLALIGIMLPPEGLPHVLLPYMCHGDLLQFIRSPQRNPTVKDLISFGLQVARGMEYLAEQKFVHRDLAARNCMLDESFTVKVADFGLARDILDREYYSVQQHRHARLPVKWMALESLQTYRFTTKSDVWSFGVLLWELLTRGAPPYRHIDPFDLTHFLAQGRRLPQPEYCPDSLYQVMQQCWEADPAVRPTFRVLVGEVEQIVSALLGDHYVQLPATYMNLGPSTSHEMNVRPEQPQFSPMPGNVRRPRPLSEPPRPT

SMILES | IC50 (RON (human)) [nM] | IC50 (MET (human)) [nM]
CC(C)N1CC=C(c2coc3c(O[C@H](C)c4c(Cl)ccc(F)c4Cl)c(N)ncc23)CC1 [Example 45, 7-[(R)-1-(2,6-Dichloro-3-fluorophenyl)-ethoxy]-3-(1-isopropyl-1,2,3,6-tetrahydropyridin-4-yl)-furo[3,2-c]pyridin-6-ylamine] | < 500 | < 500
Cc1csc(-c2coc3c(O[C@H](C)c4c(Cl)ccc(F)c4Cl)c(N)ncc23)c1 [Example 115, 7-[(R)-1-(2,6-Dichloro-3-fluorophenyl)ethoxy]-3-(4-methylthiophen-2-yl)furo[3,2-c]pyridin-6-ylamine] | 500 to 5000 | 500 to 5000
C[C@@H](Oc1c(N)ncc2c(C3=CCN(C(=O)c4ccn[nH]4)CC3)coc12)c1c(Cl)ccc(F)c1Cl [Example 231, (4-{6-Amino-7-[(R)-1-(2,6-dichloro-3-fluorophenyl)ethoxy]-furo[3,2-c]pyridin-3-yl}-3,6-dihydro-2H-pyridin-1-yl)-(2H-pyrazol-3-yl)-methanone] | 500 to 5000 | 500 to 5000
CC(Cc1ccccc1Cl)Oc1c(N)ncc2c(-c3cnn(C4CCNCC4)c3)coc12 (stereo not shown) [Example 426, 7-[2-(2-Chlorophenyl)-1-methylethoxy]-3-(1-piperidin-4-yl-1H-pyrazol-4-yl)furo[3,2-c]pyridin-6-ylamine] | 500 to 5000 | < 500
CC(Oc1c(N)ncc2c(-c3cnn(C4CCNCC4)c3)coc12)c1ccccc1OC(F)(F)F (stereo not shown) [Example 354, 3-(1-Piperidin-4-yl-1H-pyrazol-4-yl)-7-[1-(2-trifluoromethoxy-phenyl)ethoxy]furo[3,2-c]pyridin-6-ylamine] | 500 to 5000 | 500 to 5000
CCNC(=O)N1CC=C(c2coc3c(O[C@H](C)c4c(Cl)ccc(F)c4Cl)c(N)ncc23)CC1 [Example 151, 4-{6-Amino-7-[(1R)-1-(2,6-dichloro-3-fluorophenyl)ethoxy]furo[3,2-c]pyridin-3-yl}-N-ethyl-3,6-dihydropyridine-1(2H)-carboxamide] | 500 to 5000 | < 500
CC(C)NC(=O)c1coc2c(O[C@H](C)c3c(Cl)ccc(F)c3Cl)c(N)ncc12 [Example 183, 6-Amino-7-[(R)-1-(2,6-dichloro-3-fluorophenyl)ethoxy]furo[3,2-c]pyridine-3-carboxylic acid isopropylamide] | 500 to 5000 | 500 to 5000
CC(=O)Nc1ccc(-c2coc3c(O[C@H](C)c4c(Cl)ccc(F)c4Cl)c(N)ncc23)cc1 [Example 58, N-(4-{6-Amino-7-[(R)-1-(2,6-dichloro-3-fluorophenyl)ethoxy]-furo[3,2-c]pyridin-3-yl}phenyl)acetamide] | 500 to 5000 | 500 to 5000
COc1cccc(CC(C)Oc2c(N)ncc3c(-c4cnn(C5CCNCC5)c4)coc23)c1 (stereo not shown) [Example 437, 7-[2-(3-Methoxyphenyl)-1-methylethoxy]-3-(1-piperidin-4-yl-1H-pyrazol-4-yl)furo[3,2-c]pyridin-6-ylamine] | < 500 | < 500
CC(Oc1c(N)ncc2c(-c3cnn(C4CCNCC4)c3)coc12)c1cc(F)cc(-c2cnn(C)c2)c1 (stereo not shown) [Example 452, 7-{1-[3-Fluoro-5-(1-methyl-1H-pyrazol-4-yl)phenyl]ethoxy}-3-(1-piperidin-4-yl-1H-pyrazol-4-yl)furo[3,2-c]pyridin-6-ylamine] | 500 to 5000 | < 500
CC(Oc1c(N)ncc2c(-c3cnn(C4CCNCC4)c3)coc12)c1ccc(F)cc1 (stereo not shown) [Example 376, 7-[1-(4-Fluorophenyl)ethoxy]-3-(1-piperidin-4-yl-1H-pyrazol-4-yl)furo[3,2-c]pyridin-6-ylamine] | 500 to 5000 | 500 to 5000
CC(Oc1c(N)ncc2c(-c3cnn(C4CCNCC4)c3)coc12)c1ccccc1 (stereo not shown) [Example 386, 7-(1-Phenylethoxy)-3-(1-piperidin-4-yl-1H-pyrazol-4-yl)furo[3,2-c]pyridin-6-ylamine] | 500 to 5000 | 500 to 5000
Cn1c(Cc2ccccc2)ncc(-c2ccc(COc3c(N)ncc4c(-c5cnn(C6CCNCC6)c5)coc34)cc2)c1=O [Example 462, 5-{4-[6-Amino-3-(1-piperidin-4-yl-1H-pyrazol-4-yl)-furo[3,2-c]pyridin-7-yloxymethyl]-phenyl}-2-benzyl-3-methyl-3H-pyrimidin-4-one] | < 500 | < 500
C[C@@H](Oc1c(N)ncc2c(-c3cccc(C(=O)N4CCN(C)CC4)c3)coc12)c1c(Cl)ccc(F)c1Cl [Example 94, (3-{6-Amino-7-[(R)-1-(2,6-dichloro-3-fluorophenyl)ethoxy]furo[3,2-c]pyridin-3-yl}phenyl)(4-methylpiperazin-1-yl)methanone] | 500 to 5000 | < 500
C[C@@H](Oc1c(N)ncc2c(C3=CCN(C(=O)N4CCOCC4)CC3)coc12)c1c(Cl)ccc(F)c1Cl [Example 31, (4-{6-Amino-7-[(R)-1-(2,6-dichloro-3-fluorophenyl)-ethoxy]-furo[3,2-c]pyridin-3-yl}-3,6-dihydro-2H-pyridin-1-yl)-morpholin-4-ylmethanone] | 500 to 5000 | 500 to 5000
C[C@@H](Oc1c(N)ncc2c(C3=CCN(C(=O)[C@]4(C)CCCN4)CC3)coc12)c1c(Cl)ccc(F)c1Cl [Example 160, [4-{6-Amino-7-[(1R)-1-(2,6-dichloro-3-fluorophenyl)ethoxy]furo[3,2-c]pyridin-3-yl}-3,6-dihydropyridin-1(2H)-yl][(2S)-2-methylpyrrolidin-2-yl]methanone] | < 500 | < 500
C[C@@H](Oc1c(N)ncc2c(-c3csc(CN(C)C)c3)coc12)c1c(Cl)ccc(F)c1Cl [Example 303, 7-[(R)-1-(2,6-Dichloro-3-fluorophenyl)ethoxy]-3-(5-dimethyl-aminomethylthiophen-3-yl)furo[3,2-c]pyridin-6-ylamine] | < 500 | < 500
CC(Oc1c(N)ncc2c(-c3cnn(C4CCNCC4)c3)coc12)c1ccc(Cl)cc1Cl (stereo not shown) [Example 382, 7-[1-(2,4-Dichlorophenyl)ethoxy]-3-(1-piperidin-4-yl-1H-pyrazol-4-yl)furo[3,2-c]pyridin-6-ylamine] | 500 to 5000 | < 500
C[C@@H](Oc1c(N)ncc2c(C3=CCN(C4CCC4)CC3)coc12)c1c(Cl)ccc(F)c1Cl [Example 44, 3-(1-Cyclobutyl-1,2,3,6-tetrahydropyridin-4-yl)-7-[(R)-1-(2,6-dichloro-3-fluorophenyl)-ethoxy]-furo[3,2-c]pyridin-6-ylamine] | < 500 | < 500
C[C@@H](Oc1c(N)ncc2c(C3=CCN(C(=O)C4CCCCN4C)CC3)coc12)c1c(Cl)ccc(F)c1Cl (stereo partly drawn) [Example 236, (4-{6-Amino-7-[(R)-1-(2,6-dichloro-3-fluorophenyl)ethoxy]-furo[3,2-c]pyridin-3-yl}-3,6-dihydro-2H-pyridin-1-yl)-(1-methylpiperidin-2-yl)methanone] | < 500 | < 500

More lines, now with the values ahead:

IC50 (RON (human)) [nM] | IC50 (MET (human)) [nM] | SMILES
< 500 | < 500 | C[C@@H](Oc1c(N)ncc2c(-c3ccc(N4CCN(C)CC4)nc3)coc12)c1c(Cl)ccc(F)c1Cl [Example 88, 7-[(R)-1-(2,6-Dichloro-3-fluorophenyl)ethoxy]-3-[6-(4-methylpiperazin-1-yl)pyridin-3-yl]furo[3,2-c]pyridin-6-ylamine]
5000 to 20000 | 500 to 5000 | C[C@@H](Oc1c(N)ncc2c(-c3cccc(NS(=O)(=O)CCC(F)(F)F)c3)coc12)c1c(Cl)ccc(F)c1Cl [Example 248, 3,3,3-Trifluoropropane-1-sulfonic acid (3-{6-amino-7-[(R)-1-(2,6-dichloro-3-fluorophenyl)ethoxy]-furo[3,2-c]pyridin-3-yl}phenyl)amide]
500 to 5000 | 500 to 5000 | C[C@@H](Oc1c(N)ncc2c(-c3cccc(O)c3)coc12)c1c(Cl)ccc(F)c1Cl [Example 128, 3-{6-Amino-7-[(R)-(2,6-dichloro-3-fluorophenyl)ethoxy]-furo[3,2-c]pyridin-3-yl}phenol]
500 to 5000 | 500 to 5000 | CC(Oc1c(N)ncc2c(-c3cnn(C4CCNCC4)c3)coc12)c1cccc(-c2ccc[nH]2)c1 (stereo not shown) [Example 445]
> 20000 | 500 to 5000 | Nc1ncc2ccoc2c1OCc1ccc(NC(=O)c2cccn(-c3ccc(F)cc3)c2=O)cc1 [Example 461, 1-(4-Fluorophenyl)-2-oxo-1,2-dihydropyridine-3-carboxylic acid [4-(6-aminofuro[3,2-c]pyridin-7-yloxymethyl)phenyl]amide]
500 to 5000 | 500 to 5000 | Cc1cccc(C(C)Oc2c(N)ncc3c(-c4cnn(C5CCNCC5)c4)coc23)c1 (stereo not shown) [Example 343, 3-(1-Piperidin-4-yl-1H-pyrazol-4-yl)-7-(1-m-tolylethoxy)furo[3,2-c]pyridin-6-ylamine]
500 to 5000 | < 500 | C[C@@H]1CN(C(=O)CN2CC=C(c3coc4c(O[C@H](C)c5c(Cl)ccc(F)c5Cl)c(N)ncc34)CC2)C[C@H](C)O1 (relative stereo) [Example 204, 2-(4-{6-Amino-7-[(R)-1-(2,6-dichloro-3-fluorophenyl)ethoxy]-furo[3,2-c]pyridin-3-yl}-3,6-dihydro-2H-pyridin-1-yl)-1-((2R*,6S*)-2,6-dimethylmorpholin-4-yl)ethanone]
500 to 5000 | 500 to 5000 | C[C@@H](Oc1c(N)ncc2c(C3CCN(C(N)=O)CC3)coc12)c1c(Cl)ccc(F)c1Cl [Example 195, 4-{6-Amino-7-[(R)-1-(2,6-dichloro-3-fluorophenyl)ethoxy]furo[3,2-c]pyridin-3-yl}-piperidine-1-carboxamide]
> 20000 | 5000 to 20000 | C[C@@H](Oc1c(N)ncc2ccoc12)c1nnc2ccc(-c3ccccc3)nn12 [Example 471, 7-[(1R)-1-(6-phenyl[1,2,4]triazolo[4,3-b]pyridazin-3-yl)ethoxy]furo[3,2-c]pyridin-6-amine]
